Format in all cases: biochemical
The target of test [1] is T1, Sirt5 (Homo sapiens, UniProt Q9NXA8).
T1 construct: made in house
T1 sequence (Q9NXA8 37-310): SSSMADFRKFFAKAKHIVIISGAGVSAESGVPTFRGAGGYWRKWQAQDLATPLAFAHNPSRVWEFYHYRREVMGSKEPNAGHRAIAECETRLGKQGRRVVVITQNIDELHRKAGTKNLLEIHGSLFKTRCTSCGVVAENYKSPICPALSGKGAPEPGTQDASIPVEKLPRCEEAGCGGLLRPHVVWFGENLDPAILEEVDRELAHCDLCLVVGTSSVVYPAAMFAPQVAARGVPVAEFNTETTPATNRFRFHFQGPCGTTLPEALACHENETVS
The test can be described thus: Screening for Sirt5 inhibitors with ISGASE(SuK)-AMC in the fluorogenic assay. To be noted: compound 30 μM, ISGASE(SuK)-AMC 0.3 mM, Sirt5 1 μM, FIG. 13. Here is the method:
SirT5 (1 μM) was incubated with ISGASE(SuK)-AMC (SEQ ID NO:11) peptide (0.3 mM), NAD (0.5 mM) in Tris-HCl buffer (pH 7.4, 20 mM) with DTT (1 mM) in 60 μL reactions for 4 hours at 37° C. Then trypsin (1 μg) and CaCl2 (1 mM) were added and the reactions were incubated for 3 hours at 37° C. The reactions were the diluted with 50 μL water. The mixture (100 μL) was transferred to 96 well plate and the fluorescence was recorded by BIO-TEK® Synergy HT plate reader (Optics Position: Top, Sensitivity: 50, Excitation at the wavelength of 360 nm and Emission at the wavelength of 460 nm).
The procedure was the same as described above (Assaying Sirt5 activity on ISGASE(SuK)-AMC in the fluorogenic assay), except that different compounds (30 μM) were included in the reactions. In the desuccinylation step, Sirt5 was added last to initiate the desuccinylation reaction.

The target of test [2] is T2, Sirt2 (Homo sapiens, UniProt Q8IXJ6).
T2 construct: made in house
T2 sequence (Q8IXJ6 1-389): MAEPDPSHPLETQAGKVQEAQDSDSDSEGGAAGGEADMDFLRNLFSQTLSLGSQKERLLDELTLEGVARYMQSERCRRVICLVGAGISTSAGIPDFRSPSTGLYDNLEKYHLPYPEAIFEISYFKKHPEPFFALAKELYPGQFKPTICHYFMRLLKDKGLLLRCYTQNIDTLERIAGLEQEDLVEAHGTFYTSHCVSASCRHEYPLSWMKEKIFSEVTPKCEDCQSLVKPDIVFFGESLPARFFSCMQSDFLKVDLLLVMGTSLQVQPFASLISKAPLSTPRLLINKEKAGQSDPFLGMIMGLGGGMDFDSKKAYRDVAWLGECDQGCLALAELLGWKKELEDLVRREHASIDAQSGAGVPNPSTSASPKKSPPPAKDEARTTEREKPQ
The test can be described thus: Sirt2 inhibition IC50. Here is the method: (§1) All assays were carried out under identical enzyme (1 μM) and substrate (0.3 mM acyl peptide, 0.5 mM NAD) concentrations.

For the next test, the target named is T3, Sirt1 (Homo sapiens, UniProt Q96EB6).
T3 sequence (Q96EB6 1-747): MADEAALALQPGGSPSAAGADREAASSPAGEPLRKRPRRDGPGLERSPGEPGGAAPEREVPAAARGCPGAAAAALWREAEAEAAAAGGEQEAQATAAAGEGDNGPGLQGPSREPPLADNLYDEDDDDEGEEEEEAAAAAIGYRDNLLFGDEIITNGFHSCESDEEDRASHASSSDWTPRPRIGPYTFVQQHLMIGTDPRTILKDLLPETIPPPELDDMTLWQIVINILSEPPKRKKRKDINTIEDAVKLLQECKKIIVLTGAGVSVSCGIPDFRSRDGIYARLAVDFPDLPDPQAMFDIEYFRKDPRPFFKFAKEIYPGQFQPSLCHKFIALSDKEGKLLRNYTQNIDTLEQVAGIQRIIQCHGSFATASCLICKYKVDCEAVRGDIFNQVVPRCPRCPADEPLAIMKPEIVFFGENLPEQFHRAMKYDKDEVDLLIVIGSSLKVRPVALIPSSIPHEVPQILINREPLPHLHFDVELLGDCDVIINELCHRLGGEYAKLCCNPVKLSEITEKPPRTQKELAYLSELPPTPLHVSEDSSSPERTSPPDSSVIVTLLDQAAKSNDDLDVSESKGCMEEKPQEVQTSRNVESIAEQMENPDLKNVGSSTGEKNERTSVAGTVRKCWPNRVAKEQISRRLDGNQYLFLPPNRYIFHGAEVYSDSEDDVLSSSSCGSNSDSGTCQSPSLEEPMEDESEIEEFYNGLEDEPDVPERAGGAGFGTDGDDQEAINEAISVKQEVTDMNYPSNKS
Put plainly: Sirt1 inhibition IC50. Details: made in house. Here is the method:
as §1

Test [3] concerns the target T2, Sirt2. Put plainly: Secondary screening using Sirt2 and ISGASE(AcK)-AMC fluorogenic assay. To be noted: inhibitor 30 μM, ISGASE(AcK)-AMC 0.3 mM, Sirt2 1 μM, FIG. 15. Here is the method:
SirT2 (1 μM) was incubated with ISGASE(AcK)-AMC (SEQ ID NO:13) peptide (0.3 mM), inhibitors (30 μM), NAD (0.5 mM) in Tris-HCl buffer (pH 7.4, 20 mM) containing dithiothreitol (DTT, 1 mM) in a 60 μL reaction for 4 hours at 37° C. Then trypsin (1 μg) and CaCl2 (1 mM) were added and the reaction were incubated for 3 hours at 37° C. The reactions were diluted with 50 μL water. The mixture (100 μL) was transferred to 96 well plate and the fluorescence was recorded by BIO-TEK® Synergy HT (Optics Position: Top, Sensitivity: 50, Excitation at the wavelength of 360 nm and Emission at the wavelength of 460 nm).

Test [4] addresses T1, Sirt5. The test can be described thus: Sirt5 inhibition IC50 (desuccinylase, HPLC-based assay). To be noted: Sirt5 1 μM, 0.3 mM acyl peptide, 0.5 mM NAD; * = no inhibition at 100 μM. Here is the method: as §1
In the next test the target is T4, Sirt3 (Homo sapiens, UniProt Q9NTG7).
T4 construct: made in house
T4 sequence (Q9NTG7 1-399): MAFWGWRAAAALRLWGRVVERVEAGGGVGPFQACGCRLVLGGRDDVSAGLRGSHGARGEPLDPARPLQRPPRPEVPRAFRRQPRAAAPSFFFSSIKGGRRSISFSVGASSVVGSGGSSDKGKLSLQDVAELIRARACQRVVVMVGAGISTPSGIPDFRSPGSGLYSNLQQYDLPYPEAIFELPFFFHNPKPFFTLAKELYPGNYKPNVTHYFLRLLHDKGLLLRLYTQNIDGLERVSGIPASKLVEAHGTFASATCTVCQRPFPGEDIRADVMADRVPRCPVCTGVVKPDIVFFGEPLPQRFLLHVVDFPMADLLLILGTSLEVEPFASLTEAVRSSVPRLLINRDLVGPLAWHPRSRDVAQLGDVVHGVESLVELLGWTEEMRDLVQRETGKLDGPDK
The test can be described thus: Sirt3 inhibition IC50. How it is done:
as §1

Test [5] addresses T1, Sirt5. The test can be described thus: Sirt5-catalyzed desuccinylation of AMC-succinyl peptides monitored by HPLC. Here is the method: […] The reactions were stopped with 200 mM HCl and 320 mM acetic acid, analyzed by HPLC with a reverse phase C18 column (250×4.6 mm, 90 A, 10 μm, GraceVydac, Southborough, Mass.), with a linear gradient of 0% to 20% B for 10 min (1 mL/min).

For test [6], the target named is T1, Sirt5. Put plainly: Sirt5 fluorogenic assay with KQTAR(SuK)-AMC. The note with it: reaction with Sirt5. Here is the method: SirT5 (1 μM) was incubated with KQTAR(SuK)-AMC (SEQ ID NO: 10) peptide (0.3 mM), NAD (0.5 mM) in Tris-HCl buffer (pH 7.4, 20 mM) containing dithiothreitol (DTT, 1 mM) in a 60 μL reaction for 16 hours at 37° C. Then trypsin (1 μg) and CaCl2 (1 mM) were added and the reaction were incubated for 14 hours at 37° C. The reactions were diluted with 50 μL water. The mixture (100 μL) was transferred to 96 well plate and the fluorescence was recorded by BIO-TEK® Synergy HT plate reader (Optics Position: Top, Sensitivity: 50, Excitation at the wavelength of 360 nm and Emission at the wavelength of 460 nm).

“Also recorded” adds a separate entry of the source. *1 amine or outer side, *2 acyl side, *3 side chain or, on linkers, in order; H or OH if unused. Where no end group is shown, it is not given here. The star is where a group is joined. AMC = Cc1cc(=O)oc2cc(N*)ccc12; Suc = O=C(CCC(=O)[*:2])[*:1] Some results are limits rather than exact numbers.

Usually IC50 stands for the point on the concentration scale where inhibition reaches its midpoint. Lower therefore signals greater potency. Regarding `C[C@H](NC(=O)[C@H](CCCCN)NC(=O)CNC(=O)CNC(=O)[C@@H](NC(=O)[C@H](CO)NC(=O)[C@H](CCCCNC(=S)CCC(=O)O)NC(=O)[C@H](CCCNC(=N)N)NC(=O)[C@H](C)NC(=O)[C@@H](NC(=O)[C@H](CCC(N)=O)NC(=O)[C@@H](N)CCCCN)[C@@H](C)O)[C@@H](C)O)C(=O)O` [H3K9 TSu, KQTAR(TSuK)STGGKA], at Sirt5 [1], the “inhibition of Sirt5 (fluorescence) in fluorogenic assay” value is “close to background level; also recorded: significant inhibition”. Further, the half-maximal inhibitory concentration (IC50) against Sirt2 [2] (Sirt2 1 μM, 0.3 mM acyl peptide, 0.5 mM NAD, * = no inhibition at 100 μM) was over 100 µM; against Sirt1 (Sirt1 1 μM, 0.3 mM acyl peptide, 0.5 mM NAD, * = no inhibition at 100 μM), over 100 µM; against Sirt5 [4], 5 µM; at Sirt3 (Sirt3 1 μM, 0.3 mM acyl peptide, 0.5 mM NAD, * = no inhibition at 100 μM), over 100 µM. The “inhibition of Sirt2” value on Sirt2 [2] (at 100 μM concentration) is “did not inhibit”. Also, the “inhibition of Sirt1” value on Sirt1 (at 100 μM concentration) is “did not inhibit”. For the same molecule, the “fluorescence produced by Sirt2 in fluorogenic assay” value at Sirt2 [3] is “did not significantly decrease the fluorescence”. Moreover, the “inhibition of Sirt3” value against Sirt3 (at 100 μM concentration) is listed as “did not inhibit”.
Consider KQTAR(SuK)-AMC (KQTARK(Suc)-{AMC}), for which the “hydrolysis by Sirt5” value with Sirt5 [5] (1 μM Sirt5, 3 hrs) is 10%; with Sirt5 [5] (5 μM Sirt5, 3 hrs) it was 60%. Besides, the “fluorescence with Sirt5” value with Sirt5 [6] is 3600 relative fluorescence unit.

The values are drawn from patent US9932621B2, “Modulators for Sirt5 and assays for screening same” (CORNELL UNIVERSITY, priority 2010, dated 2018).
